# Test results from paper PMC11879692, “PDE4 inhibitor rolipram represses hedgehog signaling via ubiquitin-mediated proteolysis of GLI transcription factors to regress breast cancer” (The Journal of Biological Chemistry, 2025).
# Tests used:
# [1] = Serum biochemical parameters (kidney and liver function) of tumor-induced mice; format: in vivo, BALB/c mice; details: mean ± SD (n = 3); for Kidney function Creatinine: Tumor 0.93 ± 0.15, Normal 0.32 ± 0.06; for Liver function Albumin: Tumor 3.56 ± 0.25, Normal 2.36 ± 0.15; for Liver function Protein: Tumor 4.93 ± 0.15, Normal 5.16 ± 0.20; for Kidney function Urea: Tumor 36.89 ± 3.43, Normal 17.30 ± 2.25
# Description: (§1) Solid tumors were developed in BALB/c mice (n = 3) except the control group (group I) by injecting 1 × 10^4 viable 4T1 (RRID: CVCL_0125) mice breast carcinoma cells (resuspended in 50 μl of PBS) into the inguinal fourth mammary fat pad, and the tumor was allowed to develop for 14 days ([37], [38]). Mice were randomly divided into three groups, viz., untreated tumor (group II), mice treated intraperitoneally with 1 mg//kg bodyweight of rolipram (group III), and mice receiving 5 mg/kg bodyweight of rolipram, intraperitoneally (group IV) ([39], [40]). After 14 days, the mice were sacrificed. Lung, kidney, liver, serum, and the tumors were collected for further experiments ([15]).
# The total protein in mouse serum was measured by biuret method, which relies on formation of reddish-violet color in alkaline copper solution ([46]). The absorptivity of the colored solution was measured at 570 nm and compared with known protein standards to determine the level of total protein in the serum. The serum urea level of mouse was determined using urea kit (Coral Clinical Systems; catalog no.: 1102240075), which relies on the reaction of phenolic chromogen and hypochlorite with the ammonia formed from urea ([47]). The absorbance of the test sample (AbsT) and standard sample (AbsS) was recorded at 570 nm, and the concentration of urea was determined by the formula urea (mg/dl) = (AbsT/AbsS) × 40, according to the manufacturer’s protocol. Level of serum creatinine was measured using creatinine kit (Coral Clinical Systems; catalog no.: 1101060035). Briefly, this kit utilizes the formation of a colored complex because of reaction between alkaline picric acid solution and creatinine ([48]). The initial absorbance of the test sample (Abs1T) and standard sample (Abs1S) was measured at 520 nm after 30 s of incubation, and the final absorbance of the test sample (Abs2T) and standard sample (Abs2S) was measured exactly after 60 s. The formula, creatinine (mg/dl) = (Abs2T – Abs1T)/(Abs2S – Abs1S) × 2, was used to determine the concentration of creatinine. Activities of AST and ALT were evaluated from the serum of mice using AST assay kit (catalog no.: MAK055) and ALT assay kit (catalog no.: MAK052) from Sigma–Aldrich, following the manufacturer’s protocol. The estimation of AST activity is based on the production of glutamate by the activity of AST present in the serum samples. The absorbance of the colored product was measured at 450 nm and compared with known standard samples to determine the activity ([49]). Similarly, the ALT assay kit is based on the production of pyruvate in the presence of ALT in serum. The activity of the ALT in mouse serum was determined by measuring the absorbance of the colored product at 570 nm and comparing with the known standard samples ([50]). All the spectrophotometric analyses were carried out in Bio-Rad iMark Microplate Reader (RRID: SCR_023799).
# [2] = system: 4T1 mice breast carcinoma cells, mammary fat pad tumor; test: Histological study of mammary tissue and lung of tumor-bearing mice; format: in vivo, BALB/c mice; details: for number of cells per unit area (480 px × 400 px) of lung histological sections: tumor-induced 213 ± 20, control 143 ± 19, mean ± SD
# Description: as §1
# Tissue samples of mammary tissue, lung, kidney, and liver from each group of mice were fixed in Bouin’s solution (Sigma–Aldrich; catalog no.: HT10132), dehydrated in graded alcohol, and embedded in paraffin wax. Thin sections (5 μm) of tissues were mounted on glass slides and stained with hematoxylin (Sigma–Aldrich; catalog no.: H3136), following rehydration with graded alcohol. The samples were again dehydrated with graded alcohol and stained with eosin and mounted with Dystyrene Plasticizer Xylene ([42]). The images were obtained in an Olympus CKX53 Inverted Microscope (RRID: SCR_025025) at 10X magnifications with MagVision Software (Magnus). The QuPath (RRID: SCR_018257) software ([43]) was used to detect the cells and determine the area of individual cells and their corresponding nuclei in each image. The tab-delimited text file obtained from QuPath software was utilized by NumPy ([44]) (RRID: SCR_008633) to determine the nucleus-to-cytoplasm ratio of individual cells, and the frequency (cell count) of the nucleus-to-cytoplasm ratio was plotted by MatPlotLib (RRID: SCR_008624), a Python (RRID: SCR_008394) 2D plotting library. For quantifying the number of cells in a unit area of histological section of lung, each section image was divided into 12 equal parts (dimensions: 480 px × 400 px). The number of cells in each part was obtained from QuPath (RRID: SCR_018257) software, and the values were represented as mean ± SD.
smiles,measurement,setting,value
"COc1ccc(C2CNC(=O)C2)cc1OC1CCCC1 (centres unmarked) [rolipram, Rolipram]",Kidney function Creatinine,[1]; Tumor + 1 mg/kg,0.45 ± 0.08 mg/dL
same,Liver function Albumin,[1]; Tumor + 1 mg/kg,2.73 ± 0.15 g/dL
same,Liver function Protein,[1]; Tumor + 1 mg/kg,5.30 ± 0.10 g/dL
same,Kidney function Urea,[1]; Tumor + 1 mg/kg,20.39 ± 3.06 mg/dL
same,Liver function AST,"[1]; Tumor + 1 mg/kg, Tumor 135.85 ± 11.7, Normal 85.23 ± 7.97",119.69 ± 10.1 U/L
same,Kidney function Creatinine,[1]; Tumor + 5 mg/kg,0.50 ± 0.05 mg/dL
same,Liver function Albumin,[1]; Tumor + 5 mg/kg,2.66 ± 0.05 g/dL
same,Liver function Protein,[1]; Tumor + 5 mg/kg,4.90 ± 0.20 g/dL
same,Kidney function Urea,[1]; Tumor + 5 mg/kg,22.08 ± 2.34 mg/dL
same,Liver function ALT,"[1]; Tumor + 5 mg/kg, Tumor 55.77 ± 2.38, Normal 43.31 ± 0.88",55.69 ± 4.97 U/L
same,number of cells per unit area (480 px × 400 px) of lung histological sections,[2]; 1 mg/kg bodyweight,154 ± 11
same,number of cells per unit area (480 px × 400 px) of lung histological sections,[2]; 5 mg/kg bodyweight,119 ± 10
same,metastatic cellular infiltration in the lung tissues,[2]; rolipram-treated tumor-bearing mice,significantly reduce
same,multinucleated cells in the mammary fat pad and glandular region,"[2]; rolipram-treated tumor-bearing mice, p < 0.001",reduced
